Numbering of substitutions follows the chain as printed. Like-named read-outs stand apart in the source and are kept apart here.

In assay [1] the target is T1, mutant AR (W741C) (Homo sapiens, UniProt P10275, W742C).
T1 construct: expressed in transfected cells; host or cells: Cos-7
T1 sequence (P10275 1-920 W742C): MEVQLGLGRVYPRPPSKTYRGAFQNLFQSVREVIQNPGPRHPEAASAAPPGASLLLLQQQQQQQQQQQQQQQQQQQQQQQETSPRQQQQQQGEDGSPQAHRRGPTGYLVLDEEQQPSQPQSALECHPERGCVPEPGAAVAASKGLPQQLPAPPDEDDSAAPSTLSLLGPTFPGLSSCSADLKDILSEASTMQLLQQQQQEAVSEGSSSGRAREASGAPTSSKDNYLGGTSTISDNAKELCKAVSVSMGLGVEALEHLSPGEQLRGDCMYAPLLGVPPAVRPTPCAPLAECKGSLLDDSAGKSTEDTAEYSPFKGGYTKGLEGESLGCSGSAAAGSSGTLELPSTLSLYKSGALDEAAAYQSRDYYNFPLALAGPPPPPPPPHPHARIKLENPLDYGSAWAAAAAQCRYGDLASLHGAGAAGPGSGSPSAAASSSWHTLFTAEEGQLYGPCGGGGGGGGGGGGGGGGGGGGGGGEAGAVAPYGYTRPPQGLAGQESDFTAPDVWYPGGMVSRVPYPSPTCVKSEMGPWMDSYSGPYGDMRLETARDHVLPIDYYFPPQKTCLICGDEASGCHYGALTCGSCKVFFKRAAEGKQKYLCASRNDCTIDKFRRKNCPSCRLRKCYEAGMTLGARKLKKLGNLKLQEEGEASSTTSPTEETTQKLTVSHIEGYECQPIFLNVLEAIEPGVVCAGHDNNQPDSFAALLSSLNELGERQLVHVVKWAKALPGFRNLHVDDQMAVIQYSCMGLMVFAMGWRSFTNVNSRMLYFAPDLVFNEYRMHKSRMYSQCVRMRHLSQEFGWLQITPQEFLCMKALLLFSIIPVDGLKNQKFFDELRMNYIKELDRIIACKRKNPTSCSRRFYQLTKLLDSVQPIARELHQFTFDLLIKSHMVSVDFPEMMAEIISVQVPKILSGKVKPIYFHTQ
The assay can be described thus: AR transcription inhibition test (luciferase reporter in Cos-7 cells). In kind it is cell-based. The settings on record: compound 1 μM; DHT 0.1 μM; Cos-7 cells cotransfected with mutant AR (W741C) and androgen responsive luciferase reporter; 24 hr; relative to control (0.1 μM DHT); read-out: AR transcription inhibitory rate (%). As for the experimental part: AR Transcription Inhibition Test
Cos-7 cells (5,000,000 cells) were inoculated to a flask, and incubated in a culture medium (DMEM +10% Dextran Charcoal (DCC)-Fetal Bovine Serum (FBS) and 2 mM glutamine) for 24 hours. Then, a vector DNA harboring mutant AR (W741C) and a vector DNA containing a luciferase gene bound at the downstream of an androgen responsive promoter were cotransfected by a liposome method. After 4 hr, the medium was changed and, after culture for 3 hr, DHT (dihydrotestosterone) at the final concentration of 0.1 μM and the compound at the final concentration of 1 μM were added. After further culture for 24 hr, the luciferase activity was measured, and the AR transcription inhibitory activity of the compound was examined.
A general note: A reporter such as luciferase makes a cellular process visible.

In assay [2] the test system is Human prostate cancer cells LNCaP-FGC. Put plainly: Prostate specific antigen (PSA) production inhibition test in prostate cancer cells. The assay is classed as cell-based. Particulars: Homo sapiens, 72 h, read-out: PSA production inhibitory rate (%).
Assay [3] addresses T2, wild type androgen receptor (AR) (Homo sapiens, UniProt P10275).
T2 sequence (P10275 1-920): T1 sequence (P10275 1-920 W742C) with C742W
The assay can be described thus: AR-binding inhibition test (wild type), radio-labeled Mibolerone displacement. Particulars: read-out: inhibition rate, wild type. Here is the method:
(§1) AR-Binding Inhibition Test (Wild Type and LNCaP Type)
(§2) To a solution of wild type or LNCaP type mutant androgen receptor (AR) was added 3 nM radio-labeled Mibolerone and final concentration 1 μM of the compound. The mixture was incubated at 4° C. for 3 hours, and B (Bound) and F (Free) Mibolerones were separated by the dextran/charcoal method. The label count of B was measured and the inhibition rate of the compound was calculated.

Assay [4] addresses T3, LNCaP type mutant androgen receptor (AR) (Homo sapiens, UniProt P10275, T878A).
T3 sequence (P10275 1-920 T878A): T1 sequence (P10275 1-920 W742C) with C742W, T878A
The assay can be described thus: AR-binding inhibition test (LNCaP type), radio-labeled Mibolerone displacement. The settings on record: read-out: inhibition rate, LNCaP type. As for the experimental part:
as §1, §2

Where [5] appears, read: compound final concentration 1 μM, 3 nM radio-labeled Mibolerone, 4° C., 3 hours, dextran/charcoal method.

On to `Cc1nn(-c2ccc(C#N)c(Cl)c2)c(C)c1Cc1ccc(C(=O)NCC(O)CO)cc1` (racemic) [Example 321, (±)-4-{[1-(3-chloro-4-cyanophenyl)-3,5-dimethyl-1H-pyrazol-4-yl]methyl}-N-(2,3-dihydroxypropyl)benzamide], for which the inhibition at 1 µM was 38% in assay [1], 91% in assay [2], 78% in assay [3] and 84% in assay [4].

Consider `Cc1nn(-c2ccc(C#N)c(Cl)c2)c(C)c1Cc1ccc(C(=O)N(C)CCO)cc1` [Example 296, 4-{[1-(3-chloro-4-cyanophenyl)-3,5-dimethyl-1H-pyrazol-4-yl]methyl}-N-(2-hydroxyethyl)-N-methylbenzamide], for which the inhibition at 1 µM in assay [1] is 39%; in assay [2], 79%; in assay [3], 52%; in assay [4], 64%.

For the compound `Cc1nn(-c2ccc(C#N)c(Cl)c2)c(C)c1Cc1ccc(C(=O)N2CC[C@H](O)C2)cc1` [Example 332, 2-chloro-4-[4-(4-{[(3S)-3-hydroxypyrrolidin-1-yl]carbonyl}benzyl)-3,5-dimethyl-1H-pyrazol-1-yl]benzonitrile], the inhibition at 1 µM in assay [1] turned out to be 22%; in assay [2], 84%; in assay [3], 72%; in assay [4], 78%.

Consider `Cc1nn(-c2ccc(C#N)c(Cl)c2)c(C)c1Cc1ccc(-c2nnc(C(N)=O)o2)cc1` [Example 350, 5-(4-{[1-(3-chloro-4-cyanophenyl)-3,5-dimethyl-1H-pyrazol-4-yl]methyl}phenyl)-1,3,4-oxadiazole-2-carboxamide], for which the inhibition at 1 µM worked out at 93% in assay [1], 101% in assay [2], 87% in assay [3] and 92% in assay [4].

For the compound `Cc1nn(-c2ccc(C#N)c(Cl)c2)c(C)c1Cc1ccc(C(=O)N2CCC(O)CC2)cc1` [Example 355, 2-chloro-4-(4-{4-[(4-hydroxypiperidin-1-yl)carbonyl]benzyl}-3,5-dimethyl-1H-pyrazol-1-yl)benzonitrile], the inhibition at 1 µM worked out at 23% in assay [1], 117% in assay [2], 47% in assay [3] and 51% in assay [4].

For `Cc1nn(-c2ccc(C#N)c(Cl)c2)c(C)c1Cc1ccc(C(=O)N2CC(O)C2)cc1` [Example 363, 2-chloro-4-(4-{4-[(3-hydroxyazetidin-1-yl)carbonyl]benzyl}-3,5-dimethyl-1H-pyrazol-1-yl)benzonitrile], the inhibition at 1 µM in assay [1] amounted to 23%; in assay [2], 100%; in assay [3], 73%; in assay [4], 79%.

For `Cc1nn(-c2ccc(C#N)c(Cl)c2)c(C)c1Oc1ccc(C(=O)N2CCS(=O)(=O)CC2)cc1` [Example 367, 2-chloro-4-(4-{4-[(1,1-dioxidethiomorpholin-4-yl)carbonyl]phenoxy}-3,5-dimethyl-1H-pyrazol-1-yl)benzonitrile], the inhibition at 1 µM in assay [1] amounted to 24%; in assay [2] (compound 1 μM, testosterone final concentration 0.1 ng/m, PSA in culture supernatant after 3 days by ELISA, testosterone non-addition group = 100%, testosterone addition group = 0%), 109%; in assay [3] (setting [5]) it was 49%; in assay [4] (setting [5]) it was 77%.

The record behind these values is patent publication US20090270361A1, “Substituted pyrazole derivatives and use thereof” (Takeda Pharmaceutical Company Limited, priority 2008, published 2009).
